In series [1] the test system is erythrocytes. As to the kind of experiment: Intracellular access of the drugs in erythrocytes (LC-MS). Format: in vitro ADME, human. Conditions: 30 min incubation, milrinone 10 µM, amrinone 100 µM, levosimendan 1 µM. On the procedure:
Fresh (<24 h) EDTA blood from healthy donors (n = 18) was obtained and washed with Krebs-Ringer-Phosphate-Buffer containing glucose (KRPB/G, pH 7.4) and centrifuged (10 min, 1,000 g) three consecutive times. Plasma and buffy coat were removed. KRPB/G was added to the cell solution to bring it to the ratio 1:2.5. Hematocrit (Hct) was measured and adjusted with additional buffer to reach 0.44, in order to give the final Hct of 0.40 in the incubation solution. […] The reaction was stopped by placing the test tubes on ice and adding 4 ml of ice cold KRFB/G. The samples were subsequently centrifugated (5 min, 600 g), then washed with KRFB/G once more and centrifugation was repeated twice. 50 µl of the remaining red blood cell suspension was transferred to Eppendorf tubes. 50 µl 500 nM IS-Milrinone-d3 was added as an internal standard (TLC Pharmaceutical Standards Ltd.). 200 µl ZnSO4 was added to each test sample, to induce lysis of the cells, and mixed in a vortex mixer. 30 µl of the samples were used for measurement of protein concentration, the rest was mixed with 500 µl acetonitrile and centrifugated (2 min, 13400 g). Finally, 100 µl of the solution was collected for analysis using mass spectrometry (MS).
Liquid chromatography tandem mass spectrometry (LC-MS) was used to assess concentrations of the inhibitors for experiments performed to determine intracellular access of these drugs, as well as to quantify levels of cAMP/AMP and cGMP/GMP for the PDE3-and PDE5-inhibition plots. Internal standards were used, as described previously. There was a linearity from 0.2 nM to at least 2000 nM (r^2 > 0.998) for cAMP, AMP, and cGMP. For GMP, linearity was present from 2 nM to at least 2000 nM (r^2 > 0.998). Concerning PDE3-inhibitors, the linearity was found at 10 nM to at least 5,000 nM (r^2 > 0.99). Lower limit of quantification (LLOQ) was 0.2 for cAMP, cGMP, and AMP, 2 nM for GMP and 10 nM for PDE3-inhibitors (2 µl injection volume).
Intracellular concentrations of drugs were adjusted for protein concentrations in each sample. The total incubation concentrations were also adjusted for protein concentrations to evaluate the degree of access in percentage. Statistical analysis was performed using one-way ANOVA with Holm-Sidak multiple comparisons post hoc test at each temperature. ANOVA on ranks with Dunn post hoc test was used when the results were not normally distributed. The results are presented as means ± standard error of mean (SEM). p-values < 0.05 were considered significant results. Degrees of freedom (dF) is given as between group values. SigmaPlot 14.0 (Systat Software, San Jose, CA, United States) was used for all analysis, as well as creating the graphs.

In series [2] the target is T1, ABCC4 (Homo sapiens, UniProt O15439).
T1 sequence (O15439 1-1325): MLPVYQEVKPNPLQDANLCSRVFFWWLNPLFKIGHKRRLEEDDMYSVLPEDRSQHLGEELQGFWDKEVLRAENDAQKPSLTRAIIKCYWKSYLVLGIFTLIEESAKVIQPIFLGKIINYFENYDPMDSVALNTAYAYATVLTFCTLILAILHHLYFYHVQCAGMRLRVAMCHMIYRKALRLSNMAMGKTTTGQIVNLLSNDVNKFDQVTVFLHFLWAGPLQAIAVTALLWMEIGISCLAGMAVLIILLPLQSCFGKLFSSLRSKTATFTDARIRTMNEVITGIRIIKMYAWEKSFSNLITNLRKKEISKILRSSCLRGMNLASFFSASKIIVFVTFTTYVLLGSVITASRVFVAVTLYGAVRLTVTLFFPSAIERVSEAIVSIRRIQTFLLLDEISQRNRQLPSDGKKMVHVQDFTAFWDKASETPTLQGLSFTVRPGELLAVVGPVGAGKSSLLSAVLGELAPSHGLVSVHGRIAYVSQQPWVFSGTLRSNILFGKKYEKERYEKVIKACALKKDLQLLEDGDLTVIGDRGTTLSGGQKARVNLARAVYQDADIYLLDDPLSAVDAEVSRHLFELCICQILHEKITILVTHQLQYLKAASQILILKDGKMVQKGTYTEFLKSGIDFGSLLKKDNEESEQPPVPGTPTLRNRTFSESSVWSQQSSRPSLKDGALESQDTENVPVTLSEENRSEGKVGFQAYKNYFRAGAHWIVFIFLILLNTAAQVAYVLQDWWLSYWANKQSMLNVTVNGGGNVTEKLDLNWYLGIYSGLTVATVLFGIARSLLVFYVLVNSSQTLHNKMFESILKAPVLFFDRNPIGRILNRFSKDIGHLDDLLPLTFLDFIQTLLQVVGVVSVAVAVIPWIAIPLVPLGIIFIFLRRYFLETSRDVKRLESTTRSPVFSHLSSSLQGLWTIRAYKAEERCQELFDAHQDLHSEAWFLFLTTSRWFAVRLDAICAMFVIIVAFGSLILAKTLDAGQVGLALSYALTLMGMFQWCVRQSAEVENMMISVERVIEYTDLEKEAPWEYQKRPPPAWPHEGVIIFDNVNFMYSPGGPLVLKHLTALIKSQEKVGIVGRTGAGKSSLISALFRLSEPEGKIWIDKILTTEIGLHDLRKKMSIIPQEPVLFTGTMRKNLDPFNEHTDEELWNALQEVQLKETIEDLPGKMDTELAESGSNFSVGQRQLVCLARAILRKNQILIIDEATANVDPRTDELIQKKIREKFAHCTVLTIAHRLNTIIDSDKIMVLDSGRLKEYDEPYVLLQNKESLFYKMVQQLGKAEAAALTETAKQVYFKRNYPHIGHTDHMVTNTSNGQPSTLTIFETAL
Put plainly: biochemical. The format is biochemical. Conditions: cAMP-efflux, inside-out vesicles; for IC50: 20 µM 3H-cAMP, 60 min; for Ki: ABCC4 Ki. On the procedure: Freshly collected EDTA blood from healthy donors (n = 35) was prepared at 0°C–4°C, starting by separating the erythrocytes from plasma by centrifugation at 2,300 g for approximately 15 min. […] Lysis followed thereafter, with ten volumes of 5 mM Tris-HCl, 0.5 mM EGTA, 4 mM KCl (pH 8.1) and washed by repeated centrifugation at 20,000 g for 20 min and resuspension in the same buffer. Vesiculation was initiated by adding 39 volumes of a […] buffer ([…] Tris-HCl, pH 8.2) to one volume of cell suspension and completed by forcing the solution five times through a 27-gauge syringe needle to promote homogenization of the membranes. […] The resulting IOVs, which still contained ABC-transporters in the membrane, enabled us to control the intracellular environment, in this case the surrounding medium, and collect the cyclic nucleotides within. […] Radioactive labeled (^3H)-cAMP or (^3H)-cGMP (Perkin Elmer, Boston, MA, United States) were added to the incubation solutions in the concentration 20 and 2 μM, respectively, depending on the transporter examined, together with the appointed study drug in concentrations up to 1 mM. […] Next step was to collect the IOVs, which was done by filtration through a nitrocellulose membrane (Bio-Rad Laboratories, Feldkirchen, Germany), and then drying it. The resulting collection of radioactivity upon the filter, was later quantified by using a Packard TopCount NXT (Packard, Downers Grove, IL, United states) after adding scintillation fluid (MicroScint-O, PerkinElmer, Groningen, Netherlands).
IC50 and Ki values were calculated for each of the drugs, both for their ability to inhibit cAMP- and cGMP- efflux, as well as PDE3 and PDE5 activity. […] Inhibition curves were created accordingly, both with and without adjustment for normothermic control.

Consider `Cc1[nH]c(=O)c(C#N)cc1-c1ccncc1` [Milrinone], for which the “Intracellular access, % of drug concentration per gram protein in the incubation solution” value in series [1] (28°C) came out at 15.06 ± 0.544%; in series [1] (34°C), 11.41 ± 1.675%. Besides, the IC50 in series [2] (ABCC4 IC50, 28°C) was determined as 37.4 ± 24.5 µM; in series [2] (ABCC4 IC50, 32°C), 32.9 ± 14.6 µM; in series [2] (ABCC4 IC50, 34°C) it was 67 ± 22.6 µM; in series [2] (ABCC4 IC50, 37°C), 58.9 ± 13.1 µM. The Ki in series [2] (28°C) came to 22.7 ± 14.9 µM; in series [2] (32°C) it was 20 ± 8.86 µM; in series [2] (34°C) it was 40.6 ± 13.7 µM; in series [2] (37°C) it was 35.7 ± 7.94 µM.

For the origin of these results see article PMC9326216, “Treatment of Cardiovascular Dysfunction with PDE3-Inhibitors in Moderate and Severe Hypothermia—Effects on Cellular Elimination of Cyclic Adenosine Monophosphate and Cyclic Guanosine Monophosphate” (Frontiers in Physiology, 2022).
